Counter-ions that a name gives are not always drawn. Like-named read-outs stand apart in the source and are kept apart here.
What was measured:
[1] = cited from earlier work
[2] = Solubility screening in oils and surfactants; type: physicochemical
Description: These studies were performed to test the solubility of RTV in oils and surfactants. Briefly, oils and surfactants were accurately weighed into glass vials. Certain amounts of […] were added into the glass vials. The vials were stirred on the hot plate maintained at 65° C. for 3 min. The solubilization was monitored by eyes and the drug solubility (w/w) was estimated.
These studies were performed to test the solubility in oils and surfactants. The solubility of DTX was determined in oils (oleic acid, Migloyl 812, Kollisolv® MCT70, Kolliwax® GMSI, Imwitor® 960, and Labrafac) and surfactants (TPGS, Poloxamer 188, Tween 20, and Tween 80). Oils and surfactants were accurately weighed into glass vials. Excess amounts of DTX were added into glass vials containing vehicles. The vials were stirred on the hot plate maintained at 65° C. for 3 min. The drug solubility (w/w) was calculated.
These studies were performed to test the solubility in oils and surfactants. The solubility of CUR was determined in oils (Migloyl 812 N, Migloyl 829, Imwitor 491, Kollisolv MCT70, labrafac, Imwitor 900K, Imwitor 960 and Campriltol 888) and surfactants (Tween 20, Tween 80, Labrasol, Poloxamer 188, TPGS and Gelucire 44/14). Oils and surfactants were accurately weighed into glass vials. Excess amounts of CUR were added into glass vials containing vehicles. The vials were stirred on the hot plate maintained at 65° C. for 3 min. The drug solubility (w/w) was calculated.

[3] = PK study after subcutaneous injection; type: in vivo, Sprague Dawley rats; conditions: male, Sprague Dawley, rat, plasma, sc, after 6 days, one subcutaneous injection of LPV/RTV ISNPs
Description: Animal studies were performed in compliance with guidelines set by the University of North Texas Health Science Center Institutional Animal Care and Use Committees. Rats were housed in groups of 2 under a 12-h light/dark cycle with free access to food and water for 1 week before use. Sprague Dawley rats (males, 276-300 g, n=4) were purchased from Charles River Laboratories (Wilmington, Mass.). Pharmacokinetic studies were conducted to evaluate the pharmacokinetic profiles of LPV and RTV from LPV/RTV ISNPs. Rats were treated with 100 ul of LPV/RTV ISNPs to provide 100 mg/kg of LPV by subcutaneous injection. After the injection, the inventor collected the blood at 0, 1, 2, 3, 5, 6, 24 hours and 2, 3, 4, 5, 6 days. The blood was immediately centrifuged at 3400 rpm for 5 min at 4° C., and 100 ul of plasma samples were transferred to a new tube and stored at −20° C. until further analysis within 3 weeks. LPV and RTV concentrations in the plasma were determined by liquid chromatography-mass spectrometry (LC-MS, an Agilent G6460 Triple Quad LC-MS system) using a previously reported method.

[4] = test system: DU145 sensitive prostate cancer cell line; experiment: MTT cytotoxicity, DU145 sensitive; type: cell-based; conditions: Homo sapiens, 72 hr
Description: (§1) The cytotoxicity of DTX MT NPs was tested in PC3 and DU145 sensitive and resistant cell using MTT [3-(4,5-dimethylthiazol-2-yl)-2,5-diphenyltetrazolium bromide] assay. Cells were seeded into 96-well plates with a density of 7,000 cells/well and incubated at 37° C. for 24 hr under 5% CO2. Following that, cells were treated with a drug equivalent concentration ranging from 0.5-10,000 nM for DTX, DTX MT NPs, and blank NPs. Due to low water solubility, DTX was dissolved with DMSO. After 72 hr of incubation, the medium was removed from each well and replaced with 90 μL of DMEM medium without phenol red and 10 μL of MTT (5 mg/mL in PBS). The plates were incubated at 37° C. with 5% CO2 for 4 hr. […] The absorbance was measured at a test wavelength of 570 nm and a reference wavelength of 650 nm in a microplate reader (Synergy H1 hybrid Multi-Mode Microplate Reader)
(§2) The cytotoxicity of CUR MT NPs was tested in DU145 and PC-3 human prostate cancer cell lines using MTT [3-(4,5-dimethylthiazol-2-yl)-2,5-diphenyltetrazolium bromide] assay. […] After 72 hr of incubation, the medium was removed from each well and replaced with 90 μL of DMEM medium without phenol read and MTT (10 μL of 5 mg/mL in PBS). […] The absorbance was measured at a test wavelength of 570 nm and a reference wavelength of 650 nm in a microplate reader (Beckman Coulter, Inc.).

[5] = test system: cancer cells; conditions: cited from earlier work
[6] = test system: DU145 resistant prostate cancer cell line; experiment: MTT cytotoxicity, DU145 resistant; type: cell-based, human; conditions: for IC50: Homo sapiens, 72 hr, MTT
Description: The cytotoxicity of DTX MT NPs was tested in PC3 and DU145 sensitive and resistant cell using MTT [3-(4,5-dimethylthiazol-2-yl)-2,5-diphenyltetrazolium bromide] assay. Cells were seeded into 96-well plates with a density of 7,000 cells/well and incubated at 37° C. for 24 hr under 5% CO2. Following that, cells were treated with a drug equivalent concentration ranging from 0.5-10,000 nM for DTX, DTX MT NPs, and blank NPs. Due to low water solubility, DTX was dissolved with DMSO. After 72 hr of incubation, the medium was removed from each well and replaced with 90 μL of DMEM medium without phenol red and 10 μL of MTT (5 mg/mL in PBS). The plates were incubated at 37° C. with 5% CO2 for 4 hr. Formazan produced by mitochondria enzymes of living cells was dissolved in 150 μL of isopropanol containing 0.04 N HCl for 5 min. The absorbance was measured at a test wavelength of 570 nm and a reference wavelength of 650 nm in a microplate reader (Synergy H1 hybrid Multi-Mode Microplate Reader)
The cytotoxicity of CUR MT NPs was tested in DU145 and PC-3 human prostate cancer cell lines using MTT [3-(4,5-dimethylthiazol-2-yl)-2,5-diphenyltetrazolium bromide] assay. Cells were seeded into 96-well plates at 7,000 cells/well and incubated 37° C. for 24 hr under 5% CO2. After overnight incubation, cells were treated with drug concentration ranging from 0-27 μM for CUR, CUR MT NPs, and blank NPs. Due to low water solubility, CUR was dissolved with DMSO. After 72 hr of incubation, the medium was removed from each well and replaced with 90 μL of DMEM medium without phenol read and MTT (10 μL of 5 mg/mL in PBS). After incubating for 4 hr at 37° C. with 5% CO2, 0.04 N HCl/isopropanol was added to each well and incubated for 5 min to dissolve formazan crystals formed by viable cells. The absorbance was measured at a test wavelength of 570 nm and a reference wavelength of 650 nm in a microplate reader (Beckman Coulter, Inc.).

[7] = test system: PC3 sensitive prostate cancer cell line; experiment: MTT cytotoxicity, PC3 sensitive; type: cell-based; conditions: Homo sapiens, 72 hr
Description: as §1, §2

[8] = test system: PC3 resistant prostate cancer cell line; experiment: MTT cytotoxicity, PC3 resistant; type: cell-based; conditions: Homo sapiens, 72 hr
Description: as §1, §2

Nc1nc(=O)n([C@@H]2CS[C@H](CO)O2)cc1F [FTC, emtricitabine]
Bioavailability ([1]; oral): over 98%

COC(=O)N[C@H](C(=O)N[C@@H](Cc1ccccc1)[C@@H](O)CN(Cc1ccc(-c2ccccn2)cc1)NC(=O)[C@@H](NC(=O)OC)C(C)(C)C)C(C)(C)C [ATV, atazanavir]
Bioavailability ([1]; without food): about 20%

CC(C)OC(=O)OCOP(=O)(CO[C@H](C)Cn1cnc2c(N)ncnc21)OCOC(=O)OC(C)C [TDF, tenofovir disoproxil fumarate]
Bioavailability ([1]; oral): 25%

Cc1cccc(C)c1OCC(=O)N[C@@H](Cc1ccccc1)[C@@H](O)C[C@H](Cc1ccccc1)NC(=O)[C@H](C(C)C)N1CCCNC1=O [lopinavir]
Estimated solubility ([2]; in Brij 78, 65° C.): 0.4725 mg/mg | Estimated solubility ([2]; in Glyceryl behenate, 65° C.): 0.0744 mg/mg | Estimated solubility ([2]; in Killiphor P 188/Poloxamer F68, 65° C.): 0.3431 mg/mg | Estimated solubility ([2]; in Kollisolv MCT70, 65° C.): 0.0779 mg/mg | Estimated solubility ([2]; in Kolliwax GMS I, 65° C.): 0.5846 mg/mg | Estimated solubility ([2]; in Miglyo812, 65° C.): 0.0703 mg/mg | Estimated solubility ([2]; in Oleic acid, 65° C.): 1.19 mg/mg | Estimated solubility ([2]; in TPGS, 65° C.): 0.6012 mg/mg | concentration at 6 days ([3]; 100 mg/kg of LPV, read-out: LPV Ctrough): > 160 ng/mL

CN(Cc1cnc2nc(N)nc(N)c2n1)c1ccc(C(=O)N[C@@H](CCC(=O)O)C(=O)O)cc1 [MTX, methotrexate]
Bioavailability ([1]; oral): 30%

CC(C)c1nc(CN(C)C(=O)N[C@H](C(=O)N[C@@H](Cc2ccccc2)C[C@H](O)[C@H](Cc2ccccc2)NC(=O)OCc2cncs2)C(C)C)cs1 [ritonavir]
concentration at 6 days ([3]; read-out: RTV Ctrough): ~50 ng/mL

COc1cc(/C=C/C(=O)CC(=O)/C=C/c2ccc(O)c(OC)c2)ccc1O [Curcumin]
IC50 ([4]; DU-145 sensitive): 7.2 ± 0.4 µM | Concentration with anticancer effects [5]: 5 to 30 µM | IC50 ([6]; DU-145 resistance): 10 ± 0.5 µM | IC50 higher in resistant DU145 than in sensitive DU145 ([6]; resistant vs sensitive DU145): 1.4 fold | IC50 ([7]; PC-3 sensitive): 7.9 ± 0.3 µM | Solubility (w/w) ([2]; in Campriltol 888, 65° C.): 0.0160 w/w | Solubility (w/w) ([2]; in Gelucire 44/14, 65° C.): 0.153 w/w | Solubility (w/w) ([2]; in Imwitor 491, 65° C.): 0.0261 w/w | Solubility (w/w) ([2]; in Imwitor 900K, 65° C.): 0.0512 w/w | Solubility (w/w) ([2]; in Imwitor 960, 65° C.): 0.0488 w/w | Solubility (w/w) ([2]; in Kollisolv MCT70, 65° C.): 0.0179 w/w | Solubility (w/w) ([2]; in Labrafac, 65° C.): 0.0120 w/w | Solubility (w/w) ([2]; in Labrasol, 65° C.): 0.173 w/w | Solubility (w/w) ([2]; in Migloyl 812 N, 65° C.): 0.0153 w/w | Solubility (w/w) ([2]; in Migloyl 829, 65° C.): 0.0210 w/w | Solubility (w/w) ([2]; in Poloxamer 188, 65° C.): 0.153 w/w | Solubility (w/w) ([2]; in TPGS, 65° C.): 0.164 w/w | Solubility (w/w) ([2]; in Tween 20, 65° C.): 0.166 w/w | Solubility (w/w) ([2]; in Tween 80, 65° C.): 0.141 w/w | IC50 ([8]; PC-3 resistance): 7.7 ± 0.1 µM

CC(=O)O[C@@]12CO[C@@H]1C[C@H](O)[C@@]1(C)C(=O)[C@H](O)C3=C(C)[C@@H](OC(=O)[C@H](O)[C@@H](NC(=O)OC(C)(C)C)c4ccccc4)C[C@@](O)([C@@H](OC(=O)c4ccccc4)[C@H]21)C3(C)C [docetaxel]
IC50 ([4]; DU-145, DU145 sensitive): 0.0068 ± 0.0005 µM | IC50 ([6]; DU-145, DU145 resistance): 0.87 ± 0.0854 µM | IC50 ([7]; PC3 sensitive): 0.007 ± 0.0004 µM | Solubility (w/w) ([2]; in Imwitor 960K, 65° C.): 0.053 w/w | Solubility (w/w) ([2]; in Kollisolv MCT70, 65° C.): 0.038 w/w | Solubility (w/w) ([2]; in Kolliwax GMS I, 65° C.): 0.025 w/w | Solubility (w/w) ([2]; in Labrafac, 65° C.): 0.022 w/w | Solubility (w/w) ([2]; in Migloyl 812, 65° C.): 0.079 w/w | Solubility (w/w) ([2]; in Oleic acid, 65° C.): 0.066 w/w | Solubility (w/w) ([2]; in Poloxamer 188, 65° C.): 0.019 w/w | Solubility (w/w) ([2]; in TPGS, 65° C.): 0.008 w/w | Solubility (w/w) ([2]; in Tween 20, 65° C.): 0.052 w/w | Solubility (w/w) ([2]; in Tween 80, 65° C.): 0.082 w/w | IC50 ([8]; PC3 resistance): 0.0753 ± 0.0027 µM

Reference: patent US20170112775A1, “SITU SELF-ASSEMBLING PRO-NANOPARTICLE COMPOSITIONS AND METHODS OF PREPARATION AND USE THEREOF” (University of North Texas Health Science Center, priority 2015, published 2017)
